Source: US9999619B2, “Piperidin-4-yl azetidine derivatives as JAK1 inhibitors” (Incyte Corporation, priority 2010, dated 2018)

How the values were obtained:
Assay type in all cases: biochemical
Jak2 (a.a. 828-1132) = Jak2 (a.a. 828-1132) (Homo sapiens (Human), UniProt O60674); assay: In vitro JAK kinase assay (HTRF, phosphorylation of a biotinylated peptide), JAK2; conditions: measured at 1 mM ATP
Procedure, shortened: (§1)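 N-terminally His-tagged catalytic domains, baculovirus-expressed in insect cells and purified, were used as enzyme. Reactions ran 1 hr at room temperature and were stopped with a mix of 45 mM EDTA, 300 nM SA-APC and 6 nM Eu-Py20. The HTRF signal was read after 40 min of antibody binding.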

[1] = biological target: human JAK1 (a.a. 837-1142); assay: In vitro JAK kinase assay (HTRF, phosphorylation of a biotinylated peptide), JAK1; conditions: ratio of JAK2 IC50 to JAK1 IC50, measured at 1 mM ATP
Procedure, shortened: as §1

[2] = biological target: human JAK1 (a.a. 837-1142) (Homo sapiens, UniProt P23458); assay: as above; conditions: measured at 1 mM ATP
Procedure, shortened: as §1

Jak2 (a.a. 828-1132), sequence (O60674 828-1132): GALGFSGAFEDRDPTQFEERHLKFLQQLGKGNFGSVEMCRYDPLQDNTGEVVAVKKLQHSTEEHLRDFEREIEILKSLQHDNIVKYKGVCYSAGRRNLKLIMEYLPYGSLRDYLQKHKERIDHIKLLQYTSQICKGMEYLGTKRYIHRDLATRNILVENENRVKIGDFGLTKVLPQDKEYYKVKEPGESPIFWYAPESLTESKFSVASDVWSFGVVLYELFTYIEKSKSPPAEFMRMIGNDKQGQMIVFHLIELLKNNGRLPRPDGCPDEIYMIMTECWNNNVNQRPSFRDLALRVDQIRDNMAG

Structure (SMILES) | IC50 (Jak2 (a.a. 828-1132)) [nM] | IC50 Ratio JAK2/JAK1 [1] | IC50 [2] [nM]
N#CCC1(n2cc(-c3ncnc4[nH]ccc34)cn2)CN(C2CCN(C(=O)c3cc(F)ccc3F)CC2)C1 [Example 43, {1-[1-(2,5-difluorobenzoyl)piperidin-4-yl]-3-[4-(7H-pyrrolo[2,3-d]pyrimidin-4-yl)-1H-pyrazol-1-yl]azetidin-3-yl}acetonitrile] | 10 to 50 | 5.0 | ≤ 5
N#CCC1(n2cc(-c3ncnc4[nH]ccc34)cn2)CN(C2CCN(C(=O)c3c(F)cccc3C(F)(F)F)CC2)C1 [Example 45, {1-{1-[2-fluoro-6-(trifluoromethyl)benzoyl]piperidin-4-yl}-3-[4-(7H-pyrrolo[2,3-d]pyrimidin-4-yl)-1H-pyrazol-1-yl]azetidin-3-yl}acetonitrile] | 10 to 50 | 3.1 | ≤ 5
N#CCC1(n2cc(-c3ncnc4[nH]ccc34)cn2)CN(C2CCN(C(=O)c3ccc(F)c(F)c3F)CC2)C1 [Example 46, {3-[4-(7H-pyrrolo[2,3-d]pyrimidin-4-yl)-1H-pyrazol-1-yl]-1-[1-(2,3,4-trifluorobenzoyl)piperidin-4-yl]azetidin-3-yl}acetonitrile] | 10 to 50 | 6.3 | ≤ 5
N#CCC1(n2cc(-c3ncnc4[nH]ccc34)cn2)CN(C2CCN(C(=O)c3cc(F)c(F)cc3F)CC2)C1 [Example 48, {3-[4-(7H-pyrrolo[2,3-d]pyrimidin-4-yl)-1H-pyrazol-1-yl]-1-[1-(2,4,5-trifluorobenzoyl)piperidin-4-yl]azetidin-3-yl}acetonitrile] | 10 to 50 | 6.5 | ≤ 5
N#CCC1(n2cc(-c3ncnc4[nH]ccc34)cn2)CN(C2CCN(C(=O)c3ccc(C(F)(F)F)c(F)c3)CC2)C1 [Example 52, {1-{1-[3-fluoro-4-(trifluoromethyl)benzoyl]piperidin-4-yl}-3-[4-(7H-pyrrolo[2,3-d]pyrimidin-4-yl)-1H-pyrazol-1-yl]azetidin-3-yl}acetonitrile] | 50 to 100 | 4.4 | 5 to 20
N#CCC1(n2cc(-c3ncnc4[nH]ccc34)cn2)CN(C2CCN(C(=O)c3cc(Cl)cc(C(F)(F)F)n3)CC2)C1 [Example 53, {1-(1-{[4-chloro-6-(trifluoromethyl)pyridin-2-yl]carbonyl}piperidin-4-yl)-3-[4-(7H-pyrrolo[2,3-d]pyrimidin-4-yl)-1H-pyrazol-1-yl]azetidin-3-yl}acetonitrile] | 10 to 50 | 9.4 | ≤ 5
N#CCC1(n2cc(-c3ncnc4[nH]ccc34)cn2)CN(C2CCN(C(=O)c3cc(F)c(F)c(F)c3F)CC2)C1 [Example 54, {3-[4-(7H-pyrrolo[2,3-d]pyrimidin-4-yl)-1H-pyrazol-1-yl]-1-[1-(2,3,4,5-tetrafluorobenzoyl)piperidin-4-yl]azetidin-3-yl}acetonitrile] | 50 to 100 | 9.1 | 5 to 20
COc1ccc(C(=O)N2CCC(N3CC(CC#N)(n4cc(-c5ncnc6[nH]ccc56)cn4)C3)CC2)cc1C#N [Example 55, 5-[(4-{3-(cyanomethyl)-3-[4-(7H-pyrrolo[2,3-d]pyrimidin-4-yl)-1H-pyrazol-1-yl]azetidin-1-yl}piperidin-1-yl)carbonyl]-2-methoxybenzonitrile] | 10 to 50 | 7.5 | ≤ 5
N#CCC1(n2cc(-c3ncnc4[nH]ccc34)cn2)CN(C2CCN(C(=O)c3ccnc(C(F)(F)F)c3)CC2)C1 [Example 57, (3-[4-(7H-pyrrolo[2,3-d]pyrimidin-4-yl)-1H-pyrazol-1-yl]-1-{1-[2-(trifluoromethyl)isonicotinoyl]piperidin-4-yl}azetidin-3-yl)acetonitrile] | > 100 | 3.3 | > 30
N#CCC1(n2cc(-c3ncnc4[nH]ccc34)cn2)CN(C2CCN(C(=O)c3ccc(F)c(O)c3)CC2)C1 [Example 58, {1-[1-(4-fluoro-3-hydroxybenzoyl)piperidin-4-yl]-3-[4-(7H-pyrrolo[2,3-d]pyrimidin-4-yl)-1H-pyrazol-1-yl]azetidin-3-yl}acetonitrile] | 10 to 50 | 5.0 | ≤ 5
CN(C)c1c(F)c(F)c(C(=O)N2CCC(N3CC(CC#N)(n4cc(-c5ncnc6[nH]ccc56)cn4)C3)CC2)c(F)c1F [Example 60, {1-{1-[4-(dimethylamino)-2,3,5,6-tetrafluorobenzoyl]piperidin-4-yl}-3-[4-(7H-pyrrolo[2,3-d]pyrimidin-4-yl)-1H-pyrazol-1-yl]azetidin-3-yl}acetonitrile] | ≤ 10 | 1.8 | ≤ 5
N#CCC1(n2cc(-c3ncnc4[nH]ccc34)cn2)CN(C2CCN(C(=O)c3c(F)cncc3F)CC2)C1 [Example 61, {1-[1-(3,5-difluoroisonicotinoyl)piperidin-4-yl]-3-[4-(7H-pyrrolo[2,3-d]pyrimidin-4-yl)-1H-pyrazol-1-yl]azetidin-3-yl}acetonitrile] | 10 to 50 | 4.2 | 5 to 20
N#CCC1(n2cc(-c3ncnc4[nH]ccc34)cn2)CN(C2CCN(C(=O)c3ccccc3F)CC2)C1 [Example 67, {1-[1-(2-fluorobenzoyl)piperidin-4-yl]-3-[4-(7H-pyrrolo[2,3-d]pyrimidin-4-yl)-1H-pyrazol-1-yl]azetidin-3-yl}acetonitrile] | ≤ 10 | 4.7 | ≤ 5
N#CCC1(n2cc(-c3ncnc4[nH]ccc34)cn2)CN(C2CCN(C(=O)c3sc(C(F)(F)F)cc3O)CC2)C1 [Example 71, {1-{1-[3-hydroxy-5-(trifluoromethyl)-2-thienylcarbonyl]piperidin-4-yl}-3-[4-(7H-pyrrolo[2,3-d]pyrimidin-4-yl)-1H-pyrazol-1-yl]azetidin-3-yl}acetonitrile] | 50 to 100 | 4.4 | 20 to 30

The remaining lines, values ahead:

IC50 (Jak2 (a.a. 828-1132)) [nM] | IC50 Ratio JAK2/JAK1 [1] | IC50 [2] [nM] | Structure (SMILES)
≤ 10 | 4.9 | ≤ 5 | N#CCC1(n2cc(-c3ncnc4[nH]ccc34)cn2)CN(C2CCN(C(=O)c3cccc(F)c3F)CC2)C1 [Example 41, {1-[1-(2,3-difluorobenzoyl)piperidin-4-yl]-3-[4-(7H-pyrrolo[2,3-d]pyrimidin-4-yl)-1H-pyrazol-1-yl]azetidin-3-yl}acetonitrile]
≤ 10 | 6.7 | ≤ 5 | N#CCC1(n2cc(-c3ncnc4[nH]ccc34)cn2)CN(C2CCN(C(=O)c3ccc(F)cc3F)CC2)C1 [Example 42, {1-[1-(2,4-difluorobenzoyl)piperidin-4-yl]-3-[4-(7H-pyrrolo[2,3-d]pyrimidin-4-yl)-1H-pyrazol-1-yl]azetidin-3-yl}acetonitrile]
≤ 10 | 2.9 | ≤ 5 | N#CCC1(n2cc(-c3ncnc4[nH]ccc34)cn2)CN(C2CCN(C(=O)c3c(F)cccc3F)CC2)C1 [Example 44, {1-[1-(2,6-difluorobenzoyl)piperidin-4-yl]-3-[4-(7H-pyrrolo[2,3-d]pyrimidin-4-yl)-1H-pyrazol-1-yl]azetidin-3-yl}acetonitrile]
≤ 10 | 3.7 | ≤ 5 | N#CCC1(n2cc(-c3ncnc4[nH]ccc34)cn2)CN(C2CCN(C(=O)c3c(F)ccc(F)c3F)CC2)C1 [Example 47, {3-[4-(7H-pyrrolo[2,3-d]pyrimidin-4-yl)-1H-pyrazol-1-yl]-1-[1-(2,3,6-trifluorobenzoyl)piperidin-4-yl]azetidin-3-yl}acetonitrile]
≤ 10 | 6.5 | ≤ 5 | N#CCC1(n2cc(-c3ncnc4[nH]ccc34)cn2)CN(C2CCN(C(=O)c3c(F)cc(F)cc3F)CC2)C1 [Example 49, {3-[4-(7H-pyrrolo[2,3-d]pyrimidin-4-yl)-1H-pyrazol-1-yl]-1-[1-(2,4,6-trifluorobenzoyl)piperidin-4-yl]azetidin-3-yl}acetonitrile]
≤ 10 | 6.9 | ≤ 5 | COc1c(Br)cc(C(=O)N2CCC(N3CC(CC#N)(n4cc(-c5ncnc6[nH]ccc56)cn4)C3)CC2)cc1Br [Example 50, {1-[1-(3,5-dibromo-4-methoxybenzoyl)piperidin-4-yl]-3-[4-(7H-pyrrolo[2,3-d]pyrimidin-4-yl)-1H-pyrazol-1-yl]azetidin-3-yl}acetonitrile]
≤ 10 | 6.3 | ≤ 5 | CN(C)c1ccc(C(=O)N2CCC(N3CC(CC#N)(n4cc(-c5ncnc6[nH]ccc56)cn4)C3)CC2)c(F)c1C#N [Example 51, 3-[(4-{3-(cyanomethyl)-3-[4-(7H-pyrrolo[2,3-d]pyrimidin-4-yl)-1H-pyrazol-1-yl]azetidin-1-yl}piperidin-1yl)carbonyl]-6-(dimethylamino)-2-fluorobenzonitrile]
≤ 10 | 8.8 | ≤ 5 | N#CCC1(n2cc(-c3ncnc4[nH]ccc34)cn2)CN(C2CCN(C(=O)c3c(F)c(F)cc(F)c3F)CC2)C1 [Example 56, {3-[4-(7H-pyrrolo[2,3-d]pyrimidin-4-yl)-1H-pyrazol-1-yl]-1-[1-(2,3,5,6-tetrafluorobenzoyl)piperidin-4-yl]azetidin-3-yl}acetonitrile]
≤ 10 | 4.6 | ≤ 5 | CN(C)c1ccc(C(=O)N2CCC(N3CC(CC#N)(n4cc(-c5ncnc6[nH]ccc56)cn4)C3)CC2)cc1C#N [Example 59, 5-[(4-{3-(cyanomethyl)-3-[4-(7H-pyrrolo[2,3-d]pyrimidin-4-yl)-1H-pyrazol-1-yl]azetidin-1-yl}piperidin-1yl)carbonyl]-2-(dimethylamino)benzonitrile]
